{
  "source": "patent US12605362B2",
  "about": "“Eletriptan hydrobromide for treatment of spinal cord injury and improvement of locomotor function” (TECHNOPHAGE, INVESTIGAÇÃO E DESENVOLVIMENTO EM …, priority 2020, dated 2026)",
  "key": {"[1]": {"test_system": "mice with T9 contusion type of injury", "assay": "Basso Mouse Scale (BMS) open-field locomotion after T9 contusion spinal cord injury", "assay_type": "in vivo", "experimental": "Adult female C57BL/6J mice (8-10 weeks-old; Charles River) were used in this study. The mice were housed three to four per cage and were maintained on a 12-hour light/dark cycle with food and water ad libitum for the duration of the study.\n(§1) A moderate-severe contusion-type of injury was performed on adult C57BL/6 female mice (10-12 weeks) with an Infinite Horizon Impactor (PSI)^30. All surgeries were performed under aseptic conditions. Briefly, under deep anesthesia with Ketamine and Xylazine (120 mg/kg and 16 mg/kg respectively, i.p.) mice received a dorsal laminectomy at the level of 9th thoracic vertebra (T9). After securing the lateral processes of the 8th thoracic vertebra (T8) and 10th thoracic vertebra (T10) with a stainless-steel impactor tip, a controlled force-defined impact at 75 kdyne was delivered to the exposed spinal cord^28,30. Then, muscle and skin were closed with 4.0 polyglycolic acid (PGA) absorbable sutures (Safil, G1048213). In this study, mice were excluded when the actual displacement value was outside the interval 500-700 μm or if the actual force after impact was >2SD 75 Kdyne. Immediately after injury, mice were injected subcutaneously with 0.5 ml of sterile saline and then daily for 5 days. During this experiment, mice underwent gentle bladder expression twice daily until they were voiding on their own. Weight was monitored daily until 15 days-post-injury (dpi) and then weekly for the duration of the study and a high caloric pellet (Supreme Mini-Treats™ S05478 and S05472) was provided as a dietary supplement since a 10% weight loss was typically observed in this SCI model upon injury.\nThe Eletriptan Hbr (Sigma-Aldrich, PZ0011) dosage used were equivalent to the human market dose^31 and all treatment dosages were aliquoted using a coded system to maintain double-blinded measures. This code was only unveiled at the end of all behavioural tests. Mice were randomly distributed to each experimental group (SCI+Vehicle and SCI+Eletriptan Hbr). Vehicle and Eletriptan Hbr were administered via intraperitoneal injection (i.p.), beginning 1 hour after injury (hpi) and then daily until 15 dpi.\nOpen-field locomotion was assessed with the BMS rating system^30,32. The open-field used was a round platform with 85 cm in diameter and 30.5 cm high, located in a quiet testing room with normal lighting. The mice were habituated to the testing platform for 5 minutes daily for 2 weeks before surgery. The BMS testing (BMS scoring and subscoring) was performed as previously described^28,30. Briefly, mice were tested before surgery, to obtain baseline pre-operation locomotion values, where it is expected a maximum S score value. To determine the functional recovery after treatment the BMS score of each mouse was evaluated at 1, 3, 7, 14 dpi and then weekly until the end of the experiments. The evaluation of BMS score and subscore was always performed by two raters who were blind to the treatment groups and scored hindlimb locomotion for 4 minutes per mouse. If the scores differed between raters, the final score taken was the average of both scores.\nTo validate the therapeutic effect of Eletriptan Hbr for SCI indication in a non-regenerative model, it was decided to test its efficacy in a SCI rodent model. Therefore, a contusion type of injury was performed in C57BL/6 female mice, using an Infinite Horizon (IH) Impactor and the Basso Mouse Scale (BMS) test^32 was used to evaluate the locomotor performance of the animals after injury. First, mice were habituated to the open-field platform and after 15 days they were injured with a moderate-severe T9 contusion (75 kdyne) (FIG. 2A). Immediately after injury and upon biomechanical exclusion criteria, mice were randomly distributed to each experimental group (SCI+Vehicle and SCI+Eletriptan Hbr). Treatment dosages (Vehicle or Eletriptan Hbr) were administered via intraperitoneal (i.p.) injection, beginning 1 hour-post-injury (1hpi), and then daily until 15 dpi (FIG. 2A). […]"}, "[2]": {"test_system": "mice with T9 contusion type of injury", "assay": "fibrotic scar quantification (PDGFRβ / GFAP immunohistochemistry)", "assay_type": "in vivo", "settings": "42 dpi, vs Vehicle", "experimental": "as §1, with “During this experiment, mice underwent gentle bladder expression twice daily until they were voiding on their own.” left out, “injury. […]” for “injury.”\nFor immunohistochemistry in sections, OCT was removed from the cryosections using PBS (30 minutes). […] For activated microglia quantification, sections were counterstained with DAPI. […]\nOne set of sections was stained with anti-PDGFRβ and anti-GFAP to outline the border of the fibrotic scar area. Z-stack compositions were acquired in a motorized inverted widefield fluorescence microscope (Zeiss Cell Observer, Carl Zeiss MicroImaging) with 20× magnification. Fiji software was used to manually outline and calculate the PDGFRβ^+ area and total cross-sectional area to thereafter quantify the percentage of fibrotic scar area per total cross-sectional area. The rostral and caudal extents of fibrotic lesion were determined by inspection. […]"}},
  "note": "Where a name gives a salt, the structure may show the parent alone.",
  "data": [
    {"smiles": "CN1CCC[C@@H]1Cc1c[nH]c2ccc(CCS(=O)(=O)c3ccccc3)cc12", "note": "[Eletriptan Hbr, Eletriptan Hydrobromide]", "values": [
      {"measurement": "animals that acquired a mild trunk stability", "setting": "[1]; 42 dpi", "value": 46, "unit": "%"},
      {"measurement": "mice with frequent plantar stepping with parallel placement of both hindlimb paws at initial contact", "setting": "[1]; 42 dpi", "value": 85, "unit": "%"},
      {"measurement": "mice with parallel placement of at least one of the hindlimb paws at lift off", "setting": "[1]; 42 dpi", "value": 23, "unit": "%"},
      {"measurement": "events that block the walking movement such as spasms and but downs", "setting": "[1]; 42 dpi, observed during BMS testing, vs Vehicle", "value": "less events"},
      {"measurement": "mice that achieved a BMS score of 5 (frequent or consistent plantar stepping)", "setting": "[1]; 42 dpi, of thirteen treated mice", "value": "twelve"},
      {"measurement": "mice that achieved a BMS score of 6 (frequent plantar stepping with some fore-hindlimb coordination)", "setting": "[1]; 42 dpi, thirteen treated mice", "value": "one out of thirteen"},
      {"measurement": "average BMS subscores compared to Vehicle-treated mice", "setting": "[1]; from 7 to 42 dpi", "value": "consistently higher"},
      {"measurement": "average BMS subscores compared to Vehicle-treated mice", "setting": "[1]; from 35 dpi to 42 dpi", "value": "significantly higher"},
      {"measurement": "time at which average BMS scores reached a plateau", "setting": "[1]; i.p. from 1 hpi, daily until 15 dpi", "value": "28-35 dpi"},
      {"measurement": "BMS scores over time compared to Vehicle-treated mice", "setting": "[1]; i.p. from 1 hpi, daily until 15 dpi, 1 to 42 dpi", "value": "consistently but not significantly higher"},
      {"measurement": "extension of PDGFRβ+ lesion core", "setting": "[2]", "value": "no statistically significant differences"},
      {"measurement": "extension of increased levels of PDGFRβ+ immunostaining", "setting": "[2]", "value": "statistically significant reduction"},
      {"measurement": "area of fibrotic lesion core", "setting": "[2]; at lesion epicentre", "value": "no statistically significant differences"}
    ]}
  ]
}
